How the values were obtained:
[1] = molecular target: T1, rat μ (C6-MOR) opioid receptor (Rattus norvegicus, UniProt P33535); test: Radioligand binding assay, [3H]diprenorphine displacement, MOR; details: displacement of 0.2 nM [3H]diprenorphine, C6-MOR membranes; mean ± standard error
T1 construct: expressed in transfected cells
Procedure: (§1) In Vitro Pharmacology-Cell Lines and Membrane Preparations. All tissue culture reagents were purchased from Gibco Life Sciences (Grand Island, N.Y., U.S.). C6-rat glioma cells stably transfected with a rat μ (C6-MOR) or rat δ (C6-DOR) opioid receptor20 and Chinese hamster ovary (CHO) cells stably expressing a human K (CHO-KOR) opioid receptor21 were used for all in vitro assays. Cells were grown to confluence at 37° C. in 5% CO2 in Dulbecco's modified Eagle medium containing 10% fetal bovine serum and 5% penicillin/streptomycin. Membranes were prepared by washing confluent cells three times with ice cold phosphate buffered saline (0.9% NaCl, 0.61 mM Na2HPO4, 0.38 mM KH2PO4, pH 7.4). Cells were detached from the plates by incubation in warm harvesting buffer (20 mM HEPES, 150 mM NaCl, 0.68 mM EDTA, pH 7.4) and pelleted by centrifugation at 200 g for 3 min. The cell pellet was suspended in ice-cold 50 mM Tris-HCl buffer, pH 7.4, and homogenized with a Tissue Tearor (Biospec Products, Inc., Bartlesville, Okla., U.S.) for 20 s at setting 4. The homogenate was centrifuged at 20 000 g for 20 min at 4° C., and the pellet was rehomogenized in 50 mM Tris-HCl with a Tissue Tearor for 10 s at setting 2, followed by recentrifugation. The final pellet was resuspended in 50 mM Tris-HCl and frozen in aliquots at […]. Protein concentration was determined via Bradford assay using bovine serum albumin as the standard.
(§2) Radioligand Binding Assays. Radioactive compounds were purchased from Perkin-Elmer (Waltham, Mass., U.S.). Opioid ligand binding assays were performed using competitive displacement of 0.2 nM [3H]diprenorphine (250 μCi, 1.85 TBq/mmol) by the test compound from membrane preparations containing opioid receptors. The assay mixture, containing membrane suspension (20 μg protein/tube) in 50 mM Tris-HCl buffer (pH 7.4), [3H]diprenorphine, and various concentrations of test peptide, was incubated at room temperature for 1 h to allow binding to reach equilibrium. The samples were rapidly filtered through Whatman GF/C filters using a Brandel harvester (Brandel, Gaithersburg, Md., U.S.) and washed three times with 50 mM Tris-HCl buffer. The radioactivity retained on dried filters was determined by liquid scintillation counting after saturation with EcoLume liquid scintillation cocktail in a Wallac 1450 MicroBeta (Perkin-Elmer, Waltham, Mass., U.S.). Nonspecific binding was determined using 10 μM naloxone. Inhibitory constant (Ki) values were calculated using nonlinear regression analysis to fit a logistic equation to the competition data using GraphPad Prism, version 5.01, for Windows (GraphPad Software Inc., La Jolla, Calif.). The results presented are the mean±standard error from at least three separate assays performed in duplicate.

[2] = molecular target: T2, human κ (CHO-KOR) opioid receptor (Homo sapiens, UniProt P41145); test: Radioligand binding assay, [3H]diprenorphine displacement, KOR; details: displacement of 0.2 nM [3H]diprenorphine, CHO-KOR membranes; mean ± standard error
T2 construct: expressed in transfected cells
Procedure: as §1, §2

[3] = molecular target: T3, rat δ (C6-DOR) opioid receptor (Rattus norvegicus, UniProt P33533); test: Stimulation of [35S]GTPγS binding, DOR; assay type: biochemical; details: for Emax: [35S]GTPγS maximal stimulation compared with 10 μM standard DPDPE; for EC50: [35S]GTPγS binding, C6-DOR membranes, mean ± standard error
T3 construct: expressed in transfected cells
Procedure: as §1
(§3) Stimulation of [^35S]GTPyS Binding. Agonist stimulation of [35S]guanosine 5′-O-[γ-thio]triphosphate ([^35S]GTPγS, 1250 Ci, 46.2 TBq/mmol) binding was measured as described previously Briefly, membranes (10-20 μg of protein/tube) were incubated 1 h at room temperature in GTPyS buffer (50 mM Tris-HCl, 100 mM NaCl, 5 mM MgCl2, pH 7.4) containing 0.1 nM [^35S]GTPγS, 30 μM guanosine diphosphate (GDP), and varying concentrations of test peptides. Peptide stimulation of [^35S]GTPyS was compared with 10 μM standard compounds [D-Ala^2,N-MePhe^4,Gly-ol]encephalin (DAMGO) at MOR, D-Pen^2,5-enkephalin (DPDPE) at DOR, or […] at KOR. The reaction was terminated by rapidly filtering through GF/C filters and washing 10 times with GTPyS buffer, and retained radioactivity was measured as described above. The results presented are the mean±standard error from at least three separate assays performed in duplicate; maximal stimulation was determined using nonlinear regression analysis with GraphPad Prism (GraphPad Software Inc., La Jolla, Calif.).

[4] = molecular target: T2, human κ (CHO-KOR) opioid receptor; test: Stimulation of [35S]GTPγS binding, KOR; assay type: biochemical; details: for Emax: [35S]GTPγS maximal stimulation compared with 10 μM standard U-69,593; for EC50: [35S]GTPγS binding, CHO-KOR membranes, mean ± standard error
Procedure: as §1, §3

[5] = molecular target: T3, rat δ (C6-DOR) opioid receptor; test: Radioligand binding assay, [3H]diprenorphine displacement, DOR; details: displacement of 0.2 nM [3H]diprenorphine, C6-DOR membranes; mean ± standard error
Procedure: as §1, §2

[6] = molecular target: T1, rat μ (C6-MOR) opioid receptor; test: Stimulation of [35S]GTPγS binding, MOR; assay type: biochemical; details: for Emax: [35S]GTPγS maximal stimulation compared with 10 μM standard DAMGO; for EC50: [35S]GTPγS binding, C6-MOR membranes, mean ± standard error
Procedure: as §1, §3

T2 sequence (P41145 whole entry): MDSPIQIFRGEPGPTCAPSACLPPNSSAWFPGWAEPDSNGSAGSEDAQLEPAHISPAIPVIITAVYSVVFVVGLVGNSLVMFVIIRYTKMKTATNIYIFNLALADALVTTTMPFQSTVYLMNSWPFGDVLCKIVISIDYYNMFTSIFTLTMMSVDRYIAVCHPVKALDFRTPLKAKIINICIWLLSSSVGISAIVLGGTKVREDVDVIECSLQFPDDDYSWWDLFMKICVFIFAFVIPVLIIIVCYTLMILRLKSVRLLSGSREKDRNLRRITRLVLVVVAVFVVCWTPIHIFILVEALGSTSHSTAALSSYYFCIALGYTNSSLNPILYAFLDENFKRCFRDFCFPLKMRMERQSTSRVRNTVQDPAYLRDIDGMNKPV
T3 sequence (P33533 whole entry): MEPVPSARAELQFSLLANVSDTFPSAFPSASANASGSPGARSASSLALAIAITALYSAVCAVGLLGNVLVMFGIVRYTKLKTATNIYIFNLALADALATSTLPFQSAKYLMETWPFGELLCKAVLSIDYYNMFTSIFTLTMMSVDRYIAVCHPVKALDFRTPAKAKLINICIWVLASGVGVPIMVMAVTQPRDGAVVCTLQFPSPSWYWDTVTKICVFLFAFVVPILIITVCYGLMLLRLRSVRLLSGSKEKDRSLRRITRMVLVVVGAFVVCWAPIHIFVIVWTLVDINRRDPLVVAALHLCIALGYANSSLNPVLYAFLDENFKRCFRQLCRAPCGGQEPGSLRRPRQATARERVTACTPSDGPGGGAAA
T1 sequence (P33535 whole entry): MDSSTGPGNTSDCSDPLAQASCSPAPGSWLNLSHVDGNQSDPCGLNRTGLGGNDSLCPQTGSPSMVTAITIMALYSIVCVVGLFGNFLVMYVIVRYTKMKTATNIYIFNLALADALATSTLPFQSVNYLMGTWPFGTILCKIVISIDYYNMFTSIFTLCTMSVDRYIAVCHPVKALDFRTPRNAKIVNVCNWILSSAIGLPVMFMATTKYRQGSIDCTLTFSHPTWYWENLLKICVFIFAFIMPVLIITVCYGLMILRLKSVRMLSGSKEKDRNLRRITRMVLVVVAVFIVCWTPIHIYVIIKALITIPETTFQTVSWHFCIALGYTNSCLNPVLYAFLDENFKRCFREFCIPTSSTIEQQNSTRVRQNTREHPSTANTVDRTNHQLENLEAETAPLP

Compound	Ki [1] [nM]	Ki [2] [nM]	Emax [3] [%]	Emax [4] [%]	Ki [5] [nM]	Emax [6] [%]	EC50 [3] [nM]	EC50 [4] [nM]	EC50 [6] [nM]
Cc1cc(O)cc(C)c1C[C@H](N)C(=O)N[C@H]1CCNc2ccc(Cc3ccc(F)cc3)cc21 [Compound 1010]	10	90	12	0	190	58			
CCCCCCc1ccc2c(c1)[C@H](NC(=O)[C@@H](N)Cc1c(C)cc(O)cc1C)CCN2 [Compound 1011]	0.13 ± 0.02	15.1 ± 5.7	2.5 ± 2.5	34.6 ± 1.11	5.89 ± 0.76	35.9 ± 5.28	1.7	773 ± 26.5	2.41 ± 0.81
CCCCCCc1ccc2c(c1)[C@@H](NC(=O)[C@@H](N)Cc1c(C)cc(O)cc1C)CCN2 [Compound 1012]	297 ± 72	3900	22	0	1240 ± 438	18	> 10000		> 1000
CCCCCc1ccc2c(c1)[C@H](NC(=O)[C@@H](N)Cc1c(C)cc(O)cc1C)CCN2 [Compound 1013]	0.22 ± 0.09	22.5 ± 10.3	0	23.7 ± 0.83	8.81 ± 2.89	20.2 ± 7.11		543 ± 148	12 ± 5.77
Cc1cc(O)cc(C)c1C[C@H](N)C(=O)N[C@@H]1C[C@@H](C)Nc2ccc(Cc3ccccc3)cc21 [Compound 1014]	1.24 ± 0.5	238 ± 21.7	44.9 ± 8.25	28.9 ± 12.3	87.2 ± 56.2	87.8 ± 2	627 ± 88.9	4070	8.93 ± 4
Cc1cc(O)cc(C)c1C[C@H](N)C(=O)N(C1CC1)[C@@H]1CCNc2ccc(Cc3ccccc3)cc21 [Compound 1015]	25.6 ± 9.83	58.9 ± 28.5	19.5 ± 2.83	-1.84 ± 1.83	23.4 ± 10.9	15.8 ± 3.75	149 ± 42		131 ± 21.2
Cc1cc(O)cc(C)c1C[C@H](N)C(=O)N(C1CC1)C1CCNc2ccc(Cc3ccccc3)cc21 (stereo partly shown) [Compound 1016]	5.33 ± 2.43	28.6 ± 7.24	0.82 ± 3.63	-0.01 ± 0.01	52.5 ± 17.8	40.1 ± 10.7			28.4 ± 4.4
Cc1cc(O)cc(C)c1C[C@H](N)C(=O)NC1CCNc2ccc(Oc3ccccc3)cc21 (stereo partly shown) [Compound 1017]	0.42 ± 0.04	65.5 ± 9.66	9.8 ± 5.49	23.6	13.9 ± 6.7	68 ± 2.33	108 ± 53.3	957	14.9 ± 5.37
CC(=O)N1CC[C@@H](NC(=O)[C@@H](N)Cc2c(C)cc(O)cc2C)c2cc(Oc3ccccc3)ccc21 [Compound 1019]	0.1 ± 0.02	32.98 ± 0.1	15.8	37.3	4.21 ± 1.26	76.6 ± 2.66	222	1080	6.49 ± 3.21
